The target in this test is T1, hNaV1.7 (Homo sapiens, UniProt Q15858).
T1 construct: expressed in transfected cells; host or cells: HEK 293
The test is described as follows: Whole-cell patch clamp on hNaV1.7 expressed in HEK 293 cells. It counts as cell-based. The conditions noted are these: for IC50: HEK 293 cells transfected with hNaV1.7 plus human β1 and β2 subunits, room temperature (20–25 °C), 50 ms depolarization to −10 mV from holding −100 mV, mean ± SEM; for Activity on NaV1.7 at a concentration of 10 µM: 10 µM peptide, HEK 293 cells (Figure 2A–C). As to the method:
We maintained human embryonic kidney (HEK) 293 cells at 37 °C in a humidified 5% CO2 incubator in Dulbecco’s Modified Eagle’s Medium (DMEM) supplemented with 10% fetal bovine serum (FBS), 2 mM L-glutamine, 100 units/mL penicillin and 100 µg/mL streptomycin. cDNA genes encoding rat Nav1.2 and mouse Nav1.6 were subcloned into the vectors pcDNA3.1, respectively. We subcloned the gene that encodes hNaV1.7 into the vector pcDNA3.1-mod. We transfected the hNaV1.7 channel (3 μg) together with plasmids β1- (1 μg) and β2-eGFP ([…]), which encode the human β1 and β2 subunits, and Nav1.2 and Nav1.6 together with eGFP in HEK 293 cells using Lipofectamine 2000 (Invitrogen, Carlsbad, CA, USA) per the manufacturer’s instructions.
We performed whole-cell recordings using an EPC 10 patch clamp platform (HEKA, Elektronik, Lambrecht, Germany) at room temperature (20–25 °C). We made suction pipettes with access resistance of 2.0–3.0 MΩ from borosilicate glass capillary tubes (VWR micropipettes; VWR Co., West Chester, PA, USA) using a 2-step vertical microelectrode puller (PC-10; Narishige Co., Ltd., Tokyo, Japan) and compensated for voltage errors using 80% serial-resistance compensation. The standard pipette solution contained (in mM): 140 CsCl, 10 NaCl, 1 ethylene glycol-bis (β-aminoethyl ether)-N,N,N′,N′-tetraacetic acid (EGTA), and 10 HEPES (pH 7.4). The bath solution contained (in mM): 140 NaCl, 2 CaCl2, 1 MgCl2, 5 KCl, 20 4-(2-hydroxyethyl)-1-piperazineethanesulfonic acid (HEPES) and 10 glucose (pH 7.4). We purchased all chemicals from Sigma-Aldrich (St. Louis, MO, USA) and dissolved them in water. Data were acquired using PATCHMASTER software version 2x73 (HEKA Elektronik Dr. Schulze GmbH, Lambrecht, Germany). We filtered macroscopic sodium currents at 5 kHz and sampled them at 20 kHz. We acquired voltage clamp recordings 5 min after establishing a whole-cell configuration to allow adequate equilibration between the micropipette solution and the cell interior. We elicited channel current by 50 milliseconds of depolarization potential to −10 mV from the holding voltage of −100 mV.
We analyzed the data using Igor Pro software version 6.10A (WaveMetrics, Lake Oswego, OR, USA), Sigmaplot software version 10 (Sigma, St. Louis, MO, USA), OriginPro software version 8 (OriginLab Corp., Northampton, MA, USA) and Prism software version 5 (GraphPad Software, San Diego, CA, USA). Concentration–response curves were fitted using the following Hill logistic equation:y = fmax − (fmax − fmin)/(1 + (x/IC50)^n)(1) where fmax and fmin respectively represent the channel’s maximum and minimum responses to toxins, fmin was set to 0, x represents toxin concentration and n is an empirical Hill coefficient. All quantitative results are presented as mean ± standard error of the mean (SEM).
A general note: Patch clamp records ionic current or voltage across a cell membrane.

Results on seven molecules are retold here after publication PMC6162447, “Engineering Gain-of-Function Analogues of the Spider Venom Peptide HNTX-I, A Potent Blocker of the hNaV1.7 Sodium Channel” (Toxins, 2018).

Bridge positions count the residues as written; N and C are the ends. Peptide text beside a SMILES is read from it.

As usually defined, the IC50 is the concentration that inhibits the measured activity by half.

T1 sequence (O60939 30-215): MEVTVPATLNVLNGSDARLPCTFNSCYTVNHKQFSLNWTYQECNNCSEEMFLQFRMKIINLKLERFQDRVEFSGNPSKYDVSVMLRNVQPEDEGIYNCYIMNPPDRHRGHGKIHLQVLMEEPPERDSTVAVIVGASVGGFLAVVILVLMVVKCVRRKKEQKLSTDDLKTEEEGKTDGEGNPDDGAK
T1 sequence (Q07699 19-218, further chain): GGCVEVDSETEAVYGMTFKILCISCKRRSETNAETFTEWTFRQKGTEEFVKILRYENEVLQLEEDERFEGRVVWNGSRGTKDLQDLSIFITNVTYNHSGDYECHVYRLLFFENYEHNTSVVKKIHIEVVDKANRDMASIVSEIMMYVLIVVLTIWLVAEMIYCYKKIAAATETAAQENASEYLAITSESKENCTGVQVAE
T1 sequence (Q15858 other isoform, or with tags, fused parts or gaps): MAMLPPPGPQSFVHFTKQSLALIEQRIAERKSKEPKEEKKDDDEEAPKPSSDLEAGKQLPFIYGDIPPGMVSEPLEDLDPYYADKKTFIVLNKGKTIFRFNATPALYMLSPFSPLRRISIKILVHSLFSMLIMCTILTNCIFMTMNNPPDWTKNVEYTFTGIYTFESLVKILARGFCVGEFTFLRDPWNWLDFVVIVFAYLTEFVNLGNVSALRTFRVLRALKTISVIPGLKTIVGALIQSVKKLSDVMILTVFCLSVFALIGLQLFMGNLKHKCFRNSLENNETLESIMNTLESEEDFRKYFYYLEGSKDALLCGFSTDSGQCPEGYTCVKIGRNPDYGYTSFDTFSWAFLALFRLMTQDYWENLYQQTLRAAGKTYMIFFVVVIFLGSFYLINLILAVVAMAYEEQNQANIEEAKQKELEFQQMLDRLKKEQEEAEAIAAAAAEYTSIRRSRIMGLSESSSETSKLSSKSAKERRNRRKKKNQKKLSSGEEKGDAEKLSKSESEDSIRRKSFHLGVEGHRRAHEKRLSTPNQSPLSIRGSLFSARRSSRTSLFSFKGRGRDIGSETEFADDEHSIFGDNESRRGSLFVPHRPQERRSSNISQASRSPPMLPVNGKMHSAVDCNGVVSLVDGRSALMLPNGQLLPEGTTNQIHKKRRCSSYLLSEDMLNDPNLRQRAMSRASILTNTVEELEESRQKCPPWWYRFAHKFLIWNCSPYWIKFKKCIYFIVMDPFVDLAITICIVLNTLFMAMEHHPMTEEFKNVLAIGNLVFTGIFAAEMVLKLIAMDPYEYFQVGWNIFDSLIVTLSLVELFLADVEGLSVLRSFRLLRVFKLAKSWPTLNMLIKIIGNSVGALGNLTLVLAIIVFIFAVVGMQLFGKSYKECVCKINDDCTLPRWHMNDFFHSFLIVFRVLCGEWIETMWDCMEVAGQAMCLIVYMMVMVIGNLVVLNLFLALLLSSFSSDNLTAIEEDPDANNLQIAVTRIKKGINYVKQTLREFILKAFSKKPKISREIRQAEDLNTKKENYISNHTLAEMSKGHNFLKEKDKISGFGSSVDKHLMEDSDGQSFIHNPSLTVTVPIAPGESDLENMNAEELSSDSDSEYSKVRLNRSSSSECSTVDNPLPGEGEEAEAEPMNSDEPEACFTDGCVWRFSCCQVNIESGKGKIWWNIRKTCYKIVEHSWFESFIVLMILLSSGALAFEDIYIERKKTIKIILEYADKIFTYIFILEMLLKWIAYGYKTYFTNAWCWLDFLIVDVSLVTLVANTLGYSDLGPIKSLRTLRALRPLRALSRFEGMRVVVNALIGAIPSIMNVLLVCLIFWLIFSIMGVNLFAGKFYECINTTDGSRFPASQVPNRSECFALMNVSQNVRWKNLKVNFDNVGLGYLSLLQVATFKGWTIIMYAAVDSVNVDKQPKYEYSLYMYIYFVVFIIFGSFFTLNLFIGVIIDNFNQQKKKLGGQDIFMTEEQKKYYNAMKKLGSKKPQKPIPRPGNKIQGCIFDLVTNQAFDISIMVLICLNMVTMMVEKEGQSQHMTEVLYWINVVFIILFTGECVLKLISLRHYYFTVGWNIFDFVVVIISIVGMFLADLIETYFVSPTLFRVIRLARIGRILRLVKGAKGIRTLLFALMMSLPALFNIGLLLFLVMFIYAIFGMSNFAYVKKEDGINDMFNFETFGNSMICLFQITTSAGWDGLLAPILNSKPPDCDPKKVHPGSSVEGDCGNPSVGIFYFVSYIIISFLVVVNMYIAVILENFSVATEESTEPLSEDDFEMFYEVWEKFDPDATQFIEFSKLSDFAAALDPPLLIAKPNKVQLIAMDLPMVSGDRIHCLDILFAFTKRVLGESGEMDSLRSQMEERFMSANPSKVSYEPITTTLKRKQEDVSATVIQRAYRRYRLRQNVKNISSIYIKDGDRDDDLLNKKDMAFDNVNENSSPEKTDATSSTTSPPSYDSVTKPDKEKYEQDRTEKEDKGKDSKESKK

Take `CC(C)C[C@H](NC(=O)[C@H](CC(C)C)NC(=O)[C@@H](NC(=O)[C@H](CCCCN)NC(=O)[C@@H]1CSSC[C@@H]2NC(=O)[C@H](CCC(=O)O)NC(=O)[C@H](CC(N)=O)NC(=O)[C@H](CCCCN)NC(=O)CNC(=O)[C@@H]3CCCN3C(=O)[C@H](C(C)C)NC(=O)[C@@H]3CSSC[C@H](NC(=O)[C@H](C)NC(=O)[C@H](Cc4ccc(O)cc4)NC(=O)CNC(=O)[C@H](CO)NC(=O)[C@H](CSSC[C@H](NC(=O)[C@@H](N)CCC(=O)O)C(=O)N[C@@H](CCCCN)C(=O)NCC(=O)N[C@@H](Cc4ccccc4)C(=O)NCC(=O)N[C@@H](CCCCN)C(=O)N[C@@H](CO)C(=O)N3)NC2=O)C(=O)N[C@@H](CC(N)=O)C(=O)N[C@@H](CO)C(=O)N[C@@H](CCCNC(=N)N)C(=O)N[C@@H](Cc2c[nH]cn2)C(=O)N[C@@H](CCCCN)C(=O)N[C@@H](Cc2c[nH]c3ccccc23)C(=O)N1)C(C)C)C(=O)O` [D26H] (H-ECKGFGKSCVPGKNECCSGYACNSRHKWCKVLL-OH; disulfide 2-17, 9-22, 16-29): the IC50 (n ≥ 3, SEM) stood at 1500 ± 93 nM.
For `CC(C)C[C@H](NC(=O)[C@H](CC(C)C)NC(=O)[C@@H](NC(=O)[C@H](CCCCN)NC(=O)[C@@H]1CSSC[C@@H]2NC(=O)[C@H](CCC(=O)O)NC(=O)[C@H](CC(N)=O)NC(=O)[C@H](CCCCN)NC(=O)CNC(=O)[C@@H]3CCCN3C(=O)[C@H](C(C)C)NC(=O)[C@@H]3CSSC[C@H](NC(=O)[C@H](C)NC(=O)[C@H](Cc4ccc(O)cc4)NC(=O)CNC(=O)[C@H](CO)NC(=O)[C@H](CSSC[C@H](NC(=O)CN)C(=O)N[C@@H](CCCCN)C(=O)NCC(=O)N[C@@H](Cc4ccccc4)C(=O)NCC(=O)N[C@@H](CCCCN)C(=O)N[C@@H](CO)C(=O)N3)NC2=O)C(=O)N[C@@H](CC(N)=O)C(=O)N[C@@H](CO)C(=O)N[C@@H](CCCNC(=N)N)C(=O)N[C@@H](CC(=O)O)C(=O)N[C@@H](CCCCN)C(=O)N[C@@H](Cc2c[nH]c3ccccc23)C(=O)N1)C(C)C)C(=O)O` [E1G] (H-GCKGFGKSCVPGKNECCSGYACNSRDKWCKVLL-OH; disulfide 2-17, 9-22, 16-29 (inferred); N-terminus and C-terminus assumed), the “Activity on NaV1.7 at a concentration of 10 µM” value is given as “negligible activity”. Further, the half-maximal inhibitory concentration (IC50) (n ≥ 3) was above 10000 nM.
On to `CC(C)C[C@H](NC(=O)[C@H](CC(C)C)NC(=O)[C@@H](NC(=O)[C@H](CCCCN)NC(=O)[C@@H]1CSSC[C@@H]2NC(=O)[C@H](CCC(=O)O)NC(=O)[C@H](CC(N)=O)NC(=O)[C@H](CCCCN)NC(=O)CNC(=O)[C@@H]3CCCN3C(=O)[C@H](C(C)C)NC(=O)[C@@H]3CSSC[C@H](NC(=O)[C@H](C)NC(=O)[C@H](Cc4ccc(O)cc4)NC(=O)CNC(=O)[C@H](CO)NC(=O)[C@H](CSSC[C@H](NC(=O)CN)C(=O)N[C@@H](CCCCN)C(=O)NCC(=O)N[C@@H](Cc4ccccc4)C(=O)NCC(=O)N[C@@H](CCCCN)C(=O)N[C@@H](CO)C(=O)N3)NC2=O)C(=O)N[C@@H](CO)C(=O)N[C@@H](CO)C(=O)N[C@@H](CCCNC(=N)N)C(=O)N[C@@H](Cc2c[nH]cn2)C(=O)N[C@@H](CCCCN)C(=O)N[C@@H](Cc2c[nH]c3ccccc23)C(=O)N1)C(C)C)C(=O)O` [E1G–N23S–D26H] (H-GCKGFGKSCVPGKNECCSGYACSSRHKWCKVLL-OH; disulfide 2-17, 9-22, 16-29), for which, where the note is “n ≥ 3, SEM”, the IC50 stood at 179 ± 24 nM.
The same measure, in the same setting: then `CC(C)C[C@H](NC(=O)[C@H](Cc1c[nH]c2ccccc12)NC(=O)[C@@H](NC(=O)[C@H](CCCCN)NC(=O)[C@@H]1CSSC[C@@H]2NC(=O)[C@H](CCC(=O)O)NC(=O)[C@H](CC(N)=O)NC(=O)[C@H](CCCCN)NC(=O)CNC(=O)[C@@H]3CCCN3C(=O)[C@H](C(C)C)NC(=O)[C@@H]3CSSC[C@H](NC(=O)[C@H](C)NC(=O)[C@H](Cc4ccc(O)cc4)NC(=O)CNC(=O)[C@H](CO)NC(=O)[C@H](CSSC[C@H](NC(=O)CN)C(=O)N[C@@H](CCCCN)C(=O)NCC(=O)N[C@@H](Cc4ccccc4)C(=O)NCC(=O)N[C@@H](CCCCN)C(=O)N[C@@H](CO)C(=O)N3)NC2=O)C(=O)N[C@@H](CO)C(=O)N[C@@H](CO)C(=O)N[C@@H](CCCNC(=N)N)C(=O)N[C@@H](Cc2c[nH]cn2)C(=O)N[C@@H](CCCCN)C(=O)N[C@@H](Cc2c[nH]c3ccccc23)C(=O)N1)C(C)C)C(=O)O` [E1G–N23S–D26H–L32W] (H-GCKGFGKSCVPGKNECCSGYACSSRHKWCKVWL-OH; disulfide 2-17, 9-22, 16-29), with 36 ± 7 nM; and `CC(C)C[C@H](NC(=O)[C@H](CC(C)C)NC(=O)[C@@H](NC(=O)[C@H](CCCCN)NC(=O)[C@@H]1CSSC[C@@H]2NC(=O)[C@H](CCC(=O)O)NC(=O)[C@H](CC(N)=O)NC(=O)[C@H](CCCCN)NC(=O)CNC(=O)[C@@H]3CCCN3C(=O)[C@H](C(C)C)NC(=O)[C@@H]3CSSC[C@H](NC(=O)[C@H](C)NC(=O)[C@H](Cc4ccc(O)cc4)NC(=O)CNC(=O)[C@H](CO)NC(=O)[C@H](CSSC[C@H](NC(=O)CN)C(=O)N[C@@H](CCCCN)C(=O)NCC(=O)N[C@@H](Cc4ccccc4)C(=O)NCC(=O)N[C@@H](CCCCN)C(=O)N[C@@H](CO)C(=O)N3)NC2=O)C(=O)N[C@@H](CC(N)=O)C(=O)N[C@@H](CO)C(=O)N[C@@H](CCCCN)C(=O)N[C@@H](Cc2c[nH]cn2)C(=O)N[C@@H](CCCCN)C(=O)N[C@@H](Cc2c[nH]c3ccccc23)C(=O)N1)C(C)C)C(=O)O` [E1G–R25K–D26H] (H-GCKGFGKSCVPGKNECCSGYACNSKHKWCKVLL-OH; disulfide 2-17, 9-22, 16-29), with 766 ± 29 nM.
On the same count and under the same terms, then `CC(C)C[C@H](NC(=O)[C@H](Cc1c[nH]c2ccccc12)NC(=O)[C@@H](NC(=O)[C@H](CCCCN)NC(=O)[C@@H]1CSSC[C@@H]2NC(=O)[C@H](CCC(=O)O)NC(=O)[C@H](CC(N)=O)NC(=O)[C@H](CCCCN)NC(=O)CNC(=O)[C@@H]3CCCN3C(=O)[C@H](C(C)C)NC(=O)[C@@H]3CSSC[C@H](NC(=O)[C@H](C)NC(=O)[C@H](Cc4ccc(O)cc4)NC(=O)CNC(=O)[C@H](CO)NC(=O)[C@H](CSSC[C@H](NC(=O)CN)C(=O)N[C@@H](CCCCN)C(=O)NCC(=O)N[C@@H](Cc4ccccc4)C(=O)NCC(=O)N[C@@H](CCCCN)C(=O)N[C@@H](CO)C(=O)N3)NC2=O)C(=O)N[C@@H](CC(N)=O)C(=O)N[C@@H](CO)C(=O)N[C@@H](CCCCN)C(=O)N[C@@H](Cc2c[nH]cn2)C(=O)N[C@@H](CCCCN)C(=O)N[C@@H](Cc2c[nH]c3ccccc23)C(=O)N1)C(C)C)C(=O)O` [E1G–R25K–D26H–L32W] (H-GCKGFGKSCVPGKNECCSGYACNSKHKWCKVWL-OH; disulfide 2-17, 9-22, 16-29), with 669 ± 70 nM.
Regarding `CC(C)C[C@H](NC(=O)[C@H](Cc1c[nH]c2ccccc12)NC(=O)[C@@H](NC(=O)[C@H](CCCCN)NC(=O)[C@@H]1CSSC[C@@H]2NC(=O)[C@H](CCC(=O)O)NC(=O)[C@H](CC(N)=O)NC(=O)[C@H](CCCCN)NC(=O)CNC(=O)[C@@H]3CCCN3C(=O)[C@H](C(C)C)NC(=O)[C@@H]3CSSC[C@H](NC(=O)[C@H](C)NC(=O)[C@H](Cc4ccc(O)cc4)NC(=O)CNC(=O)[C@H](CO)NC(=O)[C@H](CSSC[C@H](NC(=O)[C@@H](N)CCC(=O)O)C(=O)N[C@@H](CCCCN)C(=O)NCC(=O)N[C@@H](Cc4ccccc4)C(=O)NCC(=O)N[C@@H](CCCCN)C(=O)N[C@@H](CO)C(=O)N3)NC2=O)C(=O)N[C@@H](CC(N)=O)C(=O)N[C@@H](CO)C(=O)N[C@@H](CCCNC(=N)N)C(=O)N[C@@H](CC(=O)O)C(=O)N[C@@H](CCCCN)C(=O)N[C@@H](Cc2c[nH]c3ccccc23)C(=O)N1)C(C)C)C(=O)O` [L32W] (H-ECKGFGKSCVPGKNECCSGYACNSRDKWCKVWL-OH; disulfide 2-17, 9-22, 16-29 (inferred); N-terminus and C-terminus assumed), the “Activity on NaV1.7 at a concentration of 10 µM” value is given as “negligible activity”. Moreover, for the setting “n ≥ 3”, the half-inhibitory concentration (IC50) is above 10000 nM.
